One assay deals with Cryptococcus neoformans. Nature of the assay: Inhibitory activity against chitin synthase from Cryptococcus neoformans at 128 ug/mL; No inhibition.
A short description of assay [1]: Inhibitory activity against chitin synthase from Saccharomyces cerevisiae at a concentration up to 500 uM; No inhibition.
In assay [2] the target is Chitin synthase 1 (Candida albicans) (UniProt P23316). The assay can be described thus: Inhibitory activity against chitin synthase from Candida albicans at 128 ug/mL; No inhibition.
The subject of the next assay is Microsporum canis. Nature of the assay: Inhibitory activity against chitin synthase from Microsporum canis at 128 ug/mL; No inhibition.
The subject of another assay is Aspergillus fumigatus. Nature of the assay: Inhibitory activity against chitin synthase from Aspergillus fumigatus at 128 ug/mL; No inhibition.
For assay [3], the system named is trychophyton mentagrophytes. Nature of the assay: Inhibitory activity against chitin synthase from Trichophyton mentagrophytes at 128 ug/mL; No inhibition.
Assay [4] is described as follows: Inhibitory activity against chitin synthase from Saccharomyces cerevisiae.

The source made the active and inactive calls. No cut-off for these calls is given here.

Sequence of Chitin synthase 1 (Candida albicans) (P23316 whole entry, looked up): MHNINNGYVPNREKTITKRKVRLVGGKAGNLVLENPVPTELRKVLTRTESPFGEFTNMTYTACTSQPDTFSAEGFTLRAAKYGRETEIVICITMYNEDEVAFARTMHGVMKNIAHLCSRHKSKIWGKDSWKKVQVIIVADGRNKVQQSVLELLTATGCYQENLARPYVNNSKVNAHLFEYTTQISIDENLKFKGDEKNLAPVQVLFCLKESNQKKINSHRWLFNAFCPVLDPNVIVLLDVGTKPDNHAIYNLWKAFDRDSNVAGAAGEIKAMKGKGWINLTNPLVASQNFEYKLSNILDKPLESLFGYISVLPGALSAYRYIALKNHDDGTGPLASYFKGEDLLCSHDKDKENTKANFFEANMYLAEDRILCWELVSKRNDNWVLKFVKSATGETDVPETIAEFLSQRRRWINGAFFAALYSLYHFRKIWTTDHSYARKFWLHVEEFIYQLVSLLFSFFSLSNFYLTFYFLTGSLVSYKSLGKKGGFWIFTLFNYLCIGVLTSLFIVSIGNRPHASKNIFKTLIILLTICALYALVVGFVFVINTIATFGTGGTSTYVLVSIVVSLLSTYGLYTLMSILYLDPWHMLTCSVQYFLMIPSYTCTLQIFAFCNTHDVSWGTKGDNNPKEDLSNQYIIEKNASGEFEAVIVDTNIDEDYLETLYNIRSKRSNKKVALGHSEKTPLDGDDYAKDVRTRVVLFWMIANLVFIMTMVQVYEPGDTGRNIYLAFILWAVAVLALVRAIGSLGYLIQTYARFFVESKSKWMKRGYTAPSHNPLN

For orientation: Ki means the equilibrium dissociation constant of an inhibitor or competing ligand from its target. As for `CCOP(=O)(OCC)C(F)(F)C1C(O)C(O)C(CO)N1CCNC1C(CO)OC(OC)C(NC(C)=O)C1O` (configuration not stated), the outcome (in the assay with Cryptococcus neoformans; in assay [2]; in the assay on Microsporum canis; in the assay on Aspergillus fumigatus; in assay [3]) was inactive. The Ki result in assay [1] is “Not Active”.
In the case of `C[C@@H]([C@H](N)C(=O)N[C@H](C(=O)O)[C@H]1O[C@@H](n2ccc(=O)[nH]c2=O)[C@H](O)[C@@H]1O)[C@H](O)c1ccc(O)cn1` [NIKKOMYCIN], the affinity in assay [4] corresponds to a Ki of 600 nM.

The values are drawn from ChEMBL document CHEMBL1133221 (2000).
